Consider 25 compounds from patent US20250188069A1, “COMPOUNDS AND METHODS FOR DEGRADING CASEIN KINASE 1 ALPHA” (PIN THERAPEUTICS, INC., priority 2022, published 2025).

Structures can show the parent of a compound that is named as a salt. Where two headings read alike, the source gives them in different places.

For the assay, the system named is MV-4-11 cells. As to the kind of experiment: AML cell viability assay (RealTime-Glo). Type of assay: cell-based. Particulars: Homo sapiens, read-out: Cell viability classification.
The mark [1] stands for this setting: MV4-11, IC50 class, MV-4-11 cells, RealTime-Glo after 44 hrs of treatment (TABLE 1).
The mark [2] stands for this setting: MV4-11, IC50 class, MV-4-11 cells, RealTime-Glo after 44 hrs of treatment (TABLE 2).

For `CCCN(CCN)c1cccc2c1CN(C1CCC(=O)NC1=O)C2=O` (stereo not shown) [Compound 49, 3-(4-((2-aminoethyl)(propyl)amino)-1-oxoisoindolin-2-yl)piperidine-2,6-dione], under setting [1], the IC50 was over 1000 nM. For `CCCN(CCCN)c1cccc2c1CN(C1CCC(=O)NC1=O)C2=O` (stereo not shown) [Compound 53, 3-(4-((3-aminopropyl)(propyl)amino)-1-oxoisoindolin-2-yl)piperidine-2,6-dione], the IC50 under setting [1] is 100 to 1000 nM.

Consider `CCCCCN(C[C@H]1CC[C@@H](N)CC1)c1cccc2c1CN(C1CCC(=O)NC1=O)C2=O` (stereo partly shown) [Compound 91, 3-(4-((((1s,4s)-4-aminocyclohexyl)methyl)(pentyl)amino)-1-oxoisoindolin-2-yl)piperidine-2,6-dione, HCl], for which the IC50 under setting [2] was under 100 nM. With `CCCCCN(C[C@H]1CC[C@H](N)CC1)c1cccc2c1CN(C1CCC(=O)NC1=O)C2=O` (stereo partly shown) [Compound 92, 3-(4-((((1r,4r)-4-aminocyclohexyl)methyl)(pentyl)amino)-1-oxoisoindolin-2-yl)piperidine-2,6-dione, HCl], the IC50 under setting [2] is under 100 nM. Take `NCCCCN(CCCCN)c1cccc2c1CN(C1CCC(=O)NC1=O)C2=O` (stereo not shown) [Compound 96, 3-(4-(bis(4-aminobutyl)amino)-1-oxoisoindolin-2-yl)piperidine-2,6-dione dihydrochloride]: the IC50 under setting [2] was in the range of 100 to 1000 nM. The same measure, in the same setting: the value for `NCCCCN(CCCN)c1cccc2c1CN(C1CCC(=O)NC1=O)C2=O` (stereo not shown) [Compound 97, 3-(4-((4-aminobutyl)(3-aminopropyl)amino)-1-oxoisoindolin-2-yl)piperidine-2,6-dione dihydrochloride] was over 1000 nM; that for `NCCCCN(c1cccc2c1CN(C1CCC(=O)NC1=O)C2=O)[C@H]1CC[C@@H](N)CC1` (stereo partly drawn) [Compound 102, 3-(4-((4-aminobutyl)((1S,4S)-4-aminocyclohexyl)amino)-1-oxoisoindolin-2-yl)piperidine-2,6-dione dihydrochloride] was 100 to 1000 nM; that for `NCCCCN(c1cccc2c1CN(C1CCC(=O)NC1=O)C2=O)[C@H]1CC[C@H](N)CC1` (stereo partly shown) [Compound 103, 3-(4-((4-aminobutyl)((1r,4r)-4-aminocyclohexyl)amino)-1-oxoisoindolin-2-yl)piperidine-2,6-dione, 2HCl] was 100 to 1000 nM. On the same count and under the same terms, the figure for `NCCCCN(c1cccc2c1CN(C1CCC(=O)NC1=O)C2=O)[C@H]1CC[C@@H](CN)CC1` (stereo partly shown) [Compound 104, 3-(4-((4-aminobutyl)((1s,4s)-4-(aminomethyl)cyclohexyl)amino)-1-oxoisoindolin-2-yl)piperidine-2,6-dione dihydrochloride] is 100 to 1000 nM.

In the case of `NCCCCN(c1cccc2c1CN(C1CCC(=O)NC1=O)C2=O)[C@H]1CC[C@H](CN)CC1` (stereo partly drawn) [Compound 105, 3-(4-((4-aminobutyl)((1R,4R)-4-(aminomethyl)cyclohexyl)amino)-1-oxoisoindolin-2-yl)piperidine-2,6-dione, 2HCl], under setting [2], the IC50 was in the range of 100 to 1000 nM.

Regarding `NCCCCN(C[C@H]1CC[C@@H](N)CC1)c1cccc2c1CN(C1CCC(=O)NC1=O)C2=O` (stereo partly shown) [Compound 106, 3-(4-((4-aminobutyl)(((1s,4s)-4-aminocyclohexyl)methyl)amino)-1-oxoisoindolin-2-yl)piperidine-2,6-dione, 2HCl], the IC50 under setting [2] lay within 100 to 1000 nM.

For the compound `NCCCCN(C[C@H]1CC[C@H](N)CC1)c1cccc2c1CN(C1CCC(=O)NC1=O)C2=O` (stereo partly shown) [Compound 107, 3-(4-((4-aminobutyl)(((1r,4r)-4-aminocyclohexyl)methyl)amino)-1-oxoisoindolin-2-yl)piperidine-2,6-dione, HCl], the IC50 under setting [2] lay in the range of 100 to 1000 nM. As to `C[C@H]1CC[C@@H](N(CCCCN)c2cccc3c2CN(C2CCC(=O)NC2=O)C3=O)CC1` (stereo partly shown) [Compound 108, 3-(4-((4-aminobutyl)((1s,4s)-4-methylcyclohexyl)amino)-1-oxoisoindolin-2-yl)piperidine-2,6-dione hydrochloride], the IC50 under setting [2] is under 100 nM.

Take `C[C@H]1CC[C@H](N(CCCCN)c2cccc3c2CN(C2CCC(=O)NC2=O)C3=O)CC1` (stereo partly shown) [Compound 109, 3-(4-((4-aminobutyl)((1r,4r)-4-methylcyclohexyl)amino)-1-oxoisoindolin-2-yl)piperidine-2,6-dione hydrochloride]: under setting [2], the IC50 lay within 100 to 1000 nM. The same measure, in the same setting: the value for `CCCCCN(CCC(C)(C)CN)c1cccc2c1CN(C1CCC(=O)NC1=O)C2=O` (stereo not shown) [Compound 123, 3-(4-((4-amino-3,3-dimethylbutyl)(pentyl)amino)-1-oxoisoindolin-2-yl)piperidine-2,6-dione hydrochloride] was under 100 nM; that for `CC(C)(CN)CCN(CCCCN)c1cccc2c1CN(C1CCC(=O)NC1=O)C2=O` (stereo not shown) [Compound 124, 3-(4-((4-amino-3,3-dimethylbutyl)(4-aminobutyl)amino)-1-oxoisoindolin-2-yl)piperidine-2,6-dione dihydrochloride] was under 100 nM; that for `CC(C)(CCN)CCN(CCCCN)c1cccc2c1CN(C1CCC(=O)NC1=O)C2=O` (stereo not shown) [Compound 125, 3-(4-((5-amino-3,3-dimethylpentyl)(4-aminobutyl)amino)-1-oxoisoindolin-2-yl)piperidine-2,6-dione dihydrochloride] was 100 to 1000 nM. Same read-out and setting: the value for `CC(C)(CN)CCCN(CCCCN)c1cccc2c1CN(C1CCC(=O)NC1=O)C2=O` (stereo not shown) [Compound 126, 3-(4-((5-amino-4,4-dimethylpentyl)(4-aminobutyl)amino)-1-oxoisoindolin-2-yl)piperidine-2,6-dione dihydrochloride] was under 100 nM. Regarding `CCCCCN(CCCCNC(=O)NC)c1cccc2c1CN(C1CCC(=O)NC1=O)C2=O` (stereo not shown) [Compound 143, 1-(4-((2-(2,6-dioxopiperidin-3-yl)-1-oxoisoindolin-4-yl)(pentyl)amino)butyl)-3-methylurea], the IC50 under setting [2] lay in the range of 100 to 1000 nM.

Take `CCCCCN(CCCCNC(=O)CCC)c1cccc2c1CN(C1CCC(=O)NC1=O)C2=O` (stereo not shown) [Compound 148, N-(4-((2-(2,6-dioxopiperidin-3-yl)-1-oxoisoindolin-4-yl)(pentyl)amino)butyl)butyramide]: the IC50 (MV4-11, 44 h) fell in the range of 100 to 1000 nM. Same read-out and setting: the figure for `CCCCCN(CCCCNC(=O)CC(C)C)c1cccc2c1CN(C1CCC(=O)NC1=O)C2=O` (stereo not shown) [Compound 149, N-(4-((2-(2,6-dioxopiperidin-3-yl)-1-oxoisoindolin-4-yl)(pentyl)amino)butyl)-3-methylbutanamide] is over 1000 nM. Regarding `CCCCCN(CCCCNC(=O)CC(C)(C)C)c1cccc2c1CN(C1CCC(=O)NC1=O)C2=O` (stereo not shown) [Compound 150, N-(4-((2-(2,6-dioxopiperidin-3-yl)-1-oxoisoindolin-4-yl)(pentyl)amino)butyl)-3,3-dimethylbutanamide], the IC50 under setting [2] is over 1000 nM. On to `CCCCCN(CCCCNC(=O)CC1CCCCC1)c1cccc2c1CN(C1CCC(=O)NC1=O)C2=O` (stereo not shown) [Compound 151, 2-cyclohexyl-N-(4-((2-(2,6-dioxopiperidin-3-yl)-1-oxoisoindolin-4-yl)(pentyl)amino)butyl)acetamide], for which the IC50 under setting [2] was over 1000 nM. Turning to `CCCCCN(CCCCNC(=O)CNC)c1cccc2c1CN(C1CCC(=O)NC1=O)C2=O` (stereo not shown) [Compound 181, N-(4-((2-(2,6-dioxopiperidin-3-yl)-1-oxoisoindolin-4-yl)(pentyl)amino)butyl)-2-(methylamino)acetamide], the IC50 under setting [2] was 100 to 1000 nM. `N[C@H]1CC[C@H](N(CCc2ccccc2)c2cccc3c2CN(C2CCC(=O)NC2=O)C3=O)CC1` (stereo partly shown) [Compound 247, 3-(4-(((1r,4r)-4-aminocyclohexyl)(phenethyl)amino)-1-oxoisoindolin-2-yl)piperidine-2,6-dione, HCl]: the IC50 under setting [1] is 100 to 1000 nM.
